Results: US9650379B2 (CHONG KUN DANG PHARMACEUTICAL CORP., priority 2013, dated 2017)

Tests used:
[1] = biological target: T1, HDAC6 human recombinant (Homo sapiens, UniProt Q9UBN7); assay: Inhibition of HDAC6 activity (fluorimetric assay); type: biochemical; conditions: test concentrations 0.1, 1, 10, 100 and 1000 nM; 37° C., 60 minutes
T1 construct: purchased Calbiochem 382180
T1 sequence (Q9UBN7 1-1215): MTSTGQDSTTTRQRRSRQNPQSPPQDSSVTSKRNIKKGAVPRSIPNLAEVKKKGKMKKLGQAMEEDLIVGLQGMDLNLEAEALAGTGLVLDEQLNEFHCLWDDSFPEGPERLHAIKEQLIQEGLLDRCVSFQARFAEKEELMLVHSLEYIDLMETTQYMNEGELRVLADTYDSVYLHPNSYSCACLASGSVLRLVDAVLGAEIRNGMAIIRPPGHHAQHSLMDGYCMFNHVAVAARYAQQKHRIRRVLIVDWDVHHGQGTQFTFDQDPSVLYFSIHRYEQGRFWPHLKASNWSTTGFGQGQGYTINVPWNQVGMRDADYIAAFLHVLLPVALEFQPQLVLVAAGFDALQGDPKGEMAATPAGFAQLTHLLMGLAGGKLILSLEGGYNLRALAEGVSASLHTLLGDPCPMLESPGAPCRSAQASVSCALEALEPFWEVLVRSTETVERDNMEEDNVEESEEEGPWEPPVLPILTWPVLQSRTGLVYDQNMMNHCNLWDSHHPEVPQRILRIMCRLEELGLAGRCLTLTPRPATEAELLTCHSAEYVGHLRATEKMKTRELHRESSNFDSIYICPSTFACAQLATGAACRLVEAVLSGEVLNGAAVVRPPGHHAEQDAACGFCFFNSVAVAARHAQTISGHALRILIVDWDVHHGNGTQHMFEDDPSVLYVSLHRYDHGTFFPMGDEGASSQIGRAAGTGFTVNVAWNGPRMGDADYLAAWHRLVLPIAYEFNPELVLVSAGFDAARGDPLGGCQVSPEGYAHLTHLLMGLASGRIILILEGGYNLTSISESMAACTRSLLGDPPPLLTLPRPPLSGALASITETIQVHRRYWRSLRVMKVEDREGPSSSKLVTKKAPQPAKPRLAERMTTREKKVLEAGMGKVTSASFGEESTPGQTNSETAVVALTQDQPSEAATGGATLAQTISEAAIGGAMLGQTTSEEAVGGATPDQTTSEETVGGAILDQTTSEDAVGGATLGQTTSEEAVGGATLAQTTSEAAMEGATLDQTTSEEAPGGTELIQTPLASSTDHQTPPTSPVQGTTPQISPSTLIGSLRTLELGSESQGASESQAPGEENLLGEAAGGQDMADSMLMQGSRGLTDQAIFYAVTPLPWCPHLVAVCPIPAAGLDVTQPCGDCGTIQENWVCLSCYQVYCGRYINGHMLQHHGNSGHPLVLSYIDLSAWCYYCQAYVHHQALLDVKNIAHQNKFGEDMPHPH
Procedure, shortened: (§1)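 HDAC1 tested with the kit assay mixture at 100, 1000 and 10000 nM compound; recombinant human HDAC6 at 0.1, 1, 10, 100 and 1000 nM. Reaction ran 60 min at 37° C, then developer was added for 30 min at 37° C and fluorescence quantified.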

[2] = biological target: T2, HDAC1 (Homo sapiens, UniProt Q13547); assay: Inhibition of HDAC1 activity (HDAC1 fluorimetric drug discovery assay kit); type: biochemical; conditions: test concentrations 100, 1000 and 10000 nM; 37° C., 60 minutes
T2 construct: purchased Enzolifesciences BML-AK511
T2 sequence (Q13547 whole entry): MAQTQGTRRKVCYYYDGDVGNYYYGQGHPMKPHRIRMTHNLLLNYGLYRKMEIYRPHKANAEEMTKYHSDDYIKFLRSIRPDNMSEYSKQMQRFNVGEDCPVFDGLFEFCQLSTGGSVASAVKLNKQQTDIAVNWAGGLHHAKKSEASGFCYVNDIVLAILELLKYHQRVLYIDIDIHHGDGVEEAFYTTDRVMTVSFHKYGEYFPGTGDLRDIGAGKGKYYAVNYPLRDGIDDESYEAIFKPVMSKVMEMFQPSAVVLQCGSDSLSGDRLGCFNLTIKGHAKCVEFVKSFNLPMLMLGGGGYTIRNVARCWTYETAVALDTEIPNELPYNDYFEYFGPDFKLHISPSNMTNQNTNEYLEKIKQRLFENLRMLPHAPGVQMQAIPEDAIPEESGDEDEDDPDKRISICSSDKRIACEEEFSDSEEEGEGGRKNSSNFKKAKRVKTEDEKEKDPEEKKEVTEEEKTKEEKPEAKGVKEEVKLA
Procedure, shortened: as §1

CC(C)(C)CN1CCC(c2ccnc3c2ccn3Cc2ccc(C(=O)NO)cc2)CC1 [Compound 868, N-hydroxy-4-((4-(1-neopentylpiperidin-4-yl)-1H-pyrrolo[2,3-b]pyridin-1-yl)methyl)benzamide]
IC50 [1]: 0.0156 µM | IC50 [2]: 0.93 µM

O=C(NO)c1ccc(Cn2ccc3c(C4CCN(Cc5ccccc5F)CC4)ccnc32)cc1 [Compound 869, 4-((4-(1-(2-fluorobenzyl)piperidin-4-yl)-1H-pyrrolo[2,3-b]pyridin-1-yl)methyl)-N-hydroxybenzamide]
IC50 [1]: 0.0263 µM | IC50 [2]: 0.35 µM

O=C(NO)c1ccc(Cn2ccc3c(C4CCN(Cc5cccc(F)c5)CC4)ccnc32)cc1 [Compound 870, 4-((4-(1-(3-fluorobenzyl)piperidin-4-yl)-1H-pyrrolo[2,3-b]pyridin-1-yl)methyl)-N-hydroxybenzamide]
IC50 [1]: 0.0206 µM | IC50 [2]: 0.33 µM

O=C(NO)c1ccc(Cn2ccc3cc(C4CCN(Cc5cccc(C(F)(F)F)c5)CC4)cnc32)cc1 [Compound 871, N-hydroxy-4-((5-(1-(3-(trifluoromethyl)benzyl)piperidin-4-yl)-1H-pyrrolo[2,3-b]pyridin-1-yl)methyl)benzamide]
IC50 [1]: 0.0927 µM | IC50 [2]: 3.24 µM

O=C(NO)c1ccc(Cn2ccc3cc(C4CCN(Cc5ccc(C(F)(F)F)cc5)CC4)cnc32)cc1 [Compound 872, N-hydroxy-4-((5-(1-(4-(trifluoromethyl)benzyl)piperidin-4-yl)-1H-pyrrolo[2,3-b]pyridin-1-yl)methyl)benzamide]
IC50 [1]: 0.165 µM | IC50 [2]: 6.34 µM

O=C(NO)c1ccc(Cn2ccc3cc(C4CCN(Cc5ccc(-n6ccnc6)cc5)CC4)cnc32)cc1 [Compound 873, 4-((5-(1-(4-(1H-imidazol-1-yl)benzyl)piperidin-4-yl)-1H-pyrrolo[2,3-b]pyridin-1-yl)methyl)-N-hydroxybenzamide]
IC50 [1]: 0.0165 µM | IC50 [2]: 0.76 µM

O=C(NO)c1ccc(Cn2ccc3cc(C4CCN(Cc5ccc(-n6cnnc6)cc5)CC4)cnc32)cc1 [Compound 874, 4-((5-(1-(4-(4H-1,2,4-triazol-4-yl)benzyl)piperidin-4-yl)-1H-pyrrolo[2,3-b]pyridin-1-yl)methyl)-N-hydroxybenzamide]
IC50 [1]: 0.0185 µM | IC50 [2]: 0.69 µM

O=C(NO)c1ccc(Cn2ccc3cc(C4CCN(Cc5ccc(-c6ccco6)cc5)CC4)cnc32)cc1 [Compound 875, 4-((5-(1-(4-(furan-2-yl)benzyl)piperidin-4-yl)-1H-pyrrolo[2,3-b]pyridin-1-yl)methyl)-N-hydroxybenzamide]
IC50 [1]: 0.0324 µM | IC50 [2]: 2.32 µM

O=C(NO)c1ccc(Cn2ccc3cc(C4CCN(S(=O)(=O)c5ccccc5)CC4)cnc32)cc1 [Compound 876, N-hydroxy-4-((5-(1-(phenylsulfonyl)piperidin-4-yl)-1H-pyrrolo[2,3-b]pyridin-1-yl)methyl)benzamide]
IC50 [1]: 0.042 µM | IC50 [2]: 2.8 µM

CN1CCN(Cc2ccc(CN3CCC(c4cnc5c(ccn5Cc5ccc(C(=O)NO)cc5)c4)CC3)cc2)CC1 [Compound 877, N-hydroxy-4-((5-(1-(4-((4-methylpiperazin-1-yl)methyl)benzyl)piperidin-4-yl)-1H-pyrrolo[2,3-b]pyridin-1-yl)methyl)benzamide]
IC50 [1]: 0.0087 µM | IC50 [2]: 0.77 µM

O=C(NO)c1ccc(Cn2ccc3cc(C4CCN(Cc5cccc(CN6CCOCC6)c5)CC4)cnc32)cc1 [Compound 878, N-hydroxy-4-((5-(1-(3-(morpholinomethyl)benzyl)piperidin-4-yl)-1H-pyrrolo[2,3-b]pyridin-1-yl)methyl)benzamide]
IC50 [1]: 0.0064 µM | IC50 [2]: 1.12 µM

CN1CCN(Cc2cccc(CN3CCC(c4cnc5c(ccn5Cc5ccc(C(=O)NO)cc5)c4)CC3)c2)CC1 [Compound 879, N-hydroxy-4-((5-(1-(3-((4-methylpiperazin-1-yl)methyl)benzyl)piperidin-4-yl)-1H-pyrrolo[2,3-b]pyridin-1-yl)methyl)benzamide]
IC50 [1]: 0.0076 µM | IC50 [2]: 1.05 µM

O=C(NO)c1ccc(Cn2ccc3cc(C4CCN(Cc5cncnc5)CC4)cnc32)cc1 [Compound 880, N-hydroxy-4-((5-(1-(pyrimidin-5-ylmethyl)piperidin-4-yl)-1H-pyrrolo[2,3-b]pyridin-1-yl)methyl)benzamide]
IC50 [1]: 0.006 µM | IC50 [2]: 0.77 µM

O=C(NO)c1ccc(Cn2ccc3cc(C4CCN(Cc5ncccn5)CC4)cnc32)cc1 [Compound 881, N-hydroxy-4-((5-(1-(pyrimidin-2-ylmethyl)piperidin-4-yl)-1H-pyrrolo[2,3-b]pyridine-1-yl)methyl)benzamide]
IC50 [1]: 0.0053 µM | IC50 [2]: 0.85 µM

O=C(NO)c1ccc(Cn2ccc3cc(C4CCN(Cc5ccc(CN6CCOCC6)cc5)CC4)cnc32)cc1 [Compound 882, N-hydroxy-4-((5-(1-(4-(morpholinomethyl)benzyl)piperidin-4-yl)-1H-pyrrolo[2,3-b]pyridin-1-yl)methyl)benzamide]
IC50 [1]: 0.0075 µM | IC50 [2]: 1.14 µM

CN1CCN(c2ccccc2CN2CCC(c3cnc4c(ccn4Cc4ccc(C(=O)NO)cc4)c3)CC2)CC1 [Compound 883, N-hydroxy-4-((5-(1-(2-(4-methylpiperzin-1-yl)benzyl)piperidin-4-yl)-1H-pyrrolo[2,3-b]pyridin-1-yl)methyl)benzamide]
IC50 [1]: 0.0021 µM | IC50 [2]: 2.09 µM

O=C(NO)c1ccc(Cn2ccc3cc(C4CCN(C(=O)c5cccc(CN6CCOCC6)c5)CC4)cnc32)cc1 [Compound 895, N-hydroxy-4-((5-(1-(3-(morpholinomethyl)benzoyl)piperidin-4-yl)-1H-pyrrolo[2,3-b]pyridin-1-yl)methyl)benzamide]
IC50 [1]: 0.0076 µM | IC50 [2]: 1.06 µM

CN1CCN(Cc2cccc(C(=O)N3CCC(c4cnc5c(ccn5Cc5ccc(C(=O)NO)cc5)c4)CC3)c2)CC1 [Compound 896, N-hydroxy-4-((5-(1-(3-((4-methylpiperazin-1-yl)methyl)benzoyl)piperidin-4-yl)-1H-pyrrolo[2,3-b]pyridin-1-yl)methyl)benzamide]
IC50 [1]: 0.0086 µM | IC50 [2]: 0.8 µM

O=C(NO)c1ccc(Cn2ccc3cc(C4CCN(C(=O)c5ccc(CN6CCOCC6)cc5)CC4)cnc32)cc1 [Compound 897, N-hydroxy-4-((5-(1-(4-(morpholinomethyl)benzoyl)piperidin-4-yl)-1H-pyrrolo[2,3-b]pyridin-1-yl)methyl)benzamide]
IC50 [1]: 0.0074 µM | IC50 [2]: 1.09 µM

CN1CCN(Cc2ccc(C(=O)N3CCC(c4cnc5c(ccn5Cc5ccc(C(=O)NO)cc5)c4)CC3)cc2)CC1 [Compound 898, N-hydroxy-4-((5-(1-(4-((4-methylpiperazin-1-yl)methyl)benzoyl)piperidin-4-yl)-1H-pyrrolo[2,3-b]pyridin-1-yl)methyl)benzamide]
IC50 [1]: 0.0062 µM | IC50 [2]: 0.78 µM

O=C(O)CN1CCC(c2ccnc3c2ccn3Cc2ccc(C(=O)NO)cc2)CC1 [Compound 917, 2-(4-(1-(4-(hydroxycarbamoyl)benzyl)-1H-pyrrolo[2,3-b]pyridin-4-yl)piperidin-1-yl)acetic acid]
IC50 [1]: 0.0058 µM | IC50 [2]: 0.78 µM

O=C(O)CCN1CCC(c2ccnc3c2ccn3Cc2ccc(C(=O)NO)cc2)CC1 [Compound 927, 3-(4-(1-(4-(hydroxycarbamoyl)benzyl)-1H-pyrrolo[2,3-b]pyridin-4-yl)piperidin-1-yl)propionic acid]
IC50 [1]: 0.0045 µM | IC50 [2]: 0.83 µM
